Columns and labels:
PBD of Plk1 = molecular target: T1, PBD of Plk1 (Homo sapiens, UniProt P53350); experiment: Binding of Plk1-phosphorylated 32P-PBIPtide-A6 to bead-bound GST-PBD; details: GST-PBD vs GST-PBD (H538A K540M), TBSN buffer, 1 hour at 4° C.
T1 construct: made in house

Plk1 [1] = experiment: Direct Plk1 kinase assay with total HeLa lysates and [γ-32P]ATP using GST-PBIPtides as substrate; format: biochemical, human; details: shPlk1 HeLa lysates, compared with PBIPtide4
Protocol: FIGS. 1A-1B are digital images of Western blots, a schematic representation of a kinase assay and a set of bar graphs showing that a peptide that contains the T78 motif of PBIP1 (a PBIPtide) can be used to quantitate the kinase activity of Plk1 in vitro. […] FIG. 1A Left, mitotic HeLa lysates were incubated with either bead-immobilized control glutathione S-transferase (GST) or GST-PBIPtide4 in TBSN buffer containing phosphatase inhibitors. Beads were precipitated and washed and then subjected to in vitro kinase assays in the presence of [γ-^32P]-ATP. Samples were separated by sodium dodecyl sulfate polyacrylamide gel electrophoresis (SDS/PAGE), transferred to polyvinylidene fluoride (PVDF), and then exposed (Autorad). The membrane was immunoblotted with the indicated antibodies and then stained with Coomassie (CBB). Note that the anti-p-T78 signal (α-p-T78 panel) is relatively weak because the incubation was carried out in TBSN at 4° C. FIG. 1A Right is schematic diagram illustrating the experimental procedures described in FIG. 1A Left. The ellipsoids depict bead-associated GST-PBIPtide containing the T78 motif. […] The GST-PBIPtide bands were excised, and incorporated 32P was quantified. […]
It was then determined whether the Plk1 activity present in total cellular lysates could be directly measured by incubating the lysates with GST-PBIPtide. […]

Plk1 [2] = experiment: PBIPtide-based Plk1 ELISA with shLuc/shPlk1 HeLa lysates; details: compared with PBIPtide4
Protocol: The ELISA wells were coated with soluble GST-PBIPtide containing the T78 motif and then reacted with total cellular lysates. The Plk1 activity in the total lysates generates the p-T78 epitope to which Plk1 itself binds. After reaction, Plk1 activity is quantified by incubating the ELISA wells with either anti-p-T78 antibody (to detect the p-T78 epitope generated) or anti-Plk1 antibody (to detect Plk1 bound to the p-T78 epitope), followed by HRP-conjugated secondary antibody (the grey antibody with a black dot). The asterisks indicate 3.3′, 5.5′-tetramethylbenzidine (TMB) substrate and its reaction product, generated by HRP. […] HeLa cells were silenced for control luciferase (shLuc) or Plk1 (shPlk1) and then treated with nocodazole for 16 hours to arrest the cells in prometaphase (a condition that maximizes Plk1 activity). […] Buffer indicates no-lysate control. The same lysates were subjected to immunoblotting analysis to determine the level of Plk1 in the lysates. […] GST-PBIPtide-A6-coated ELISA wells were incubated with the indicated amount of recombinant Plk1 purified from Sf9 cells. The level of the p-T78 epitope generated and the amount of Plk1 bound to the p-T78 GST-PBIPtide-A6 were quantified by using anti-p-T78 and anti-Plk1 antibodies, respectively. […] Total lysates were prepared from these cells and applied to the GST-PBIPtide-A6-coated wells. Buffer indicates no-lysate control. […]

T1 sequence (P53350 326-603 limits assumed): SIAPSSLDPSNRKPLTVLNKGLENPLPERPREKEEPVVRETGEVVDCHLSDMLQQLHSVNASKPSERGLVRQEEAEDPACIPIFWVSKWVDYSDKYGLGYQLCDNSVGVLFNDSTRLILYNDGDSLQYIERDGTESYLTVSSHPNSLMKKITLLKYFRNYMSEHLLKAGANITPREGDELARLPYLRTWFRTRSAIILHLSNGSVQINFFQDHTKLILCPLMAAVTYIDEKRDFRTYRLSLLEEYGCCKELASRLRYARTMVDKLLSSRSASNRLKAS

PBD binding after Plk1-dependent phosphorylation of the T78 motif (PBD of Plk1): sufficient for the PBD binding
Level of 32P incorporation after Plk1 depletion (Plk1 [1]): mildly, but reproducibly, lower level
Substance: GST-PBIPtide-A6: N-terminal GST fusion of SEQ ID NO: 8; 6 repeats of the PBIPtide (Y68F T70A Y81F) triple mutant joined by GGPGG linkers
Sensitivity to Plk1 activity (Plk1 [2]): mildly, but reproducibly, increased sensitivity

From patent US20110076693A1, “METHOD FOR DETECTION AND QUANTIFICATION OF PLK1 EXPRESSION AND ACTIVITY” (The U.S.A. as Represented by the Secretary , Dept.of Health …, priority 2008, published 2011)
